Measured values taken from patent US20070093483A1, “Use of derivatives of 2, 4-dihydro-[1,2,4] triazole-3-thione as inhibitors of the enzyme myeloperoxidase (mpo)” (ASTRAZENECA AB, priority 2003, published 2007).

Target: T1, human MPO (Homo sapiens, UniProt P05164)
T1 sequence (P05164 49-745): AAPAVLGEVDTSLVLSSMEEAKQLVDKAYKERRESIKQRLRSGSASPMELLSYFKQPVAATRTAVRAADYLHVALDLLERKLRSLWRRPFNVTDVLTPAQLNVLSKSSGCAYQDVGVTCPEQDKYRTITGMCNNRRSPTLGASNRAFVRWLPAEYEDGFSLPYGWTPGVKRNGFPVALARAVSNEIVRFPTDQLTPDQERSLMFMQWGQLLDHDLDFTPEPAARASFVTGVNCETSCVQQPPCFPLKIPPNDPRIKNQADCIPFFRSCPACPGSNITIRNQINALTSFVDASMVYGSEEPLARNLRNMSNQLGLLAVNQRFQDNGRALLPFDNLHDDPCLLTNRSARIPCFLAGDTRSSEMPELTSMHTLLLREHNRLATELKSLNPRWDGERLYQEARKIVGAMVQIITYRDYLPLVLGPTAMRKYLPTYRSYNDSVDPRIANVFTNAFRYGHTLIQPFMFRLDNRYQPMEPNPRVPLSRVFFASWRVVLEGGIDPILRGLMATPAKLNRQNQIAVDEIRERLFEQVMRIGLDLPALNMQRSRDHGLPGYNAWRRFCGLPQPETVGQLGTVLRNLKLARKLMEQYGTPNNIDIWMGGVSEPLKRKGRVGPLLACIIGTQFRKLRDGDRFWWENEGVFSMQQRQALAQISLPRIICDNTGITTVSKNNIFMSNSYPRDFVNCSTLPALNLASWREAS
Assay: MPO inhibition screen (TMB oxidation, absorbance), with or without added tyrosine
Type: biochemical
Settings: in the presence of tyrosine (final 8 uM); human MPO 2.5 nM; H2O2 100 μM; pH 6.5
Experimental: Methods for the determination of MPO inhibitory activity are disclosed in co-pending patent application WO 02/090575. The pharmacological activity of compounds according to the invention was tested in the following screen in which the compounds were either tested alone or in the presence of added tyrosine:
Assay buffer: 20 mM sodium/potassium phosphate buffer pH 6.5 containing 10 mM taurine and 100 mM NaCl.
Developing reagent: 2 mM 3,3 ′,5,5′-tetramethylbenzidine (TMB), 200 μM KI, 200 mM acetate buffer pH 5.4 with 20% DNF.
To 10 μl of diluted compounds in assay buffer, 40 μl of human MPO (final concentration 2.5 nM), with or without 20 μM tyrosine (final concentration, if present, 8 uM), was added and the mixture was incubated for 10 minutes at ambient temperature. Then 50 μl of H2O2 (final concentration 100 μM), or assay buffer alone as a control, were added. After incubation for 10 minutes at ambient temperature, the reaction was stopped by adding 10 μl 0.2 mg/ml of catalase (final concentration 18 μg/ml). The reaction mixture was left for an additional 5 minutes before 100 μl of TMB developing reagent was added. The amount of oxidised 3,3′,5,5′-tetramethylbenzidine formed was then measured after about 5 minutes using absorbance spectroscopy at about […]. IC50 values were then determined using standard procedures.

| IC50 [µM] | SMILES |
| --- | --- |
| 11.3 | COc1ccc(OCc2n[nH]c(=S)n2CC2CCCO2)cc1 (stereo not shown) [Example 20, 5-(4-Methoxyphenoxymethyl)-4-(2-tetrahydrofuran-2-yl-methyl)-2,4-dihydro-[1,2,4]triazole-3-thione] |
| 7.2 | Cc1ccccc1-n1c(Cc2c[nH]c3ccccc23)n[nH]c1=S [Example 74, 5-(1H-Indol-3-ylmethyl)-4-(2-methylphenyl)-2,4-dihydro-[1,2,4]triazole-3-thione] |
| 23.6 | OCC(c1ccccc1)c1n[nH]c(=S)n1-c1ccccc1 (stereo not shown) [Example 57, 5-(2-Hydroxy-1-phenylethyl)-4-phenyl-2,4-dihydro-[1,2,4]triazole-3-thione] |
| 3.9 | Fc1ccc(-n2c(Cc3ccccc3Cl)n[nH]c2=S)cc1 [Example 29, 5-(2-Chlorobenzyl)-4-(4-fluorophenyl)-2,4-dihydro-[1,2,4]triazole-3-thione] |
